# According to patent US20210300924A1, “5-[6-[[3-(4,5,6,7-TETRAHYDROPYRAZOLO[4,3-C]PYRIDIN-1-YL)AZETIDIN-1-YL]METHYL]MORPHOLIN-4-YL]QUINOLINE-8-CARBONITRILE DERIVATIVES AND SIMILAR COMPOUNDS AS TLR7-9 ANTAGONISTS FOR TREATING SYSTEMIC LUPUS ERYTHEMATOSUS” (Hoffmann-La Roche Inc., priority 2018, published 2021):
# Marks after values point to notes of the source that are not given here.
# Key:
# [1] = target: T1, human TLR7 (Homo sapiens, UniProt Q9NYK1); assay: HEK293-Blue-hTLR-7 cells assay; format: cell-based; conditions: HEK293-Blue-hTLR7 cells, R848 stimulation, 20 hrs, SEAP reporter; read-out: HEK/hTLR7 IC50
# T1 construct: host or cells: HEK293 (HEK-Blue hTLR7)
# T1 sequence (Q9NYK1 27-1049): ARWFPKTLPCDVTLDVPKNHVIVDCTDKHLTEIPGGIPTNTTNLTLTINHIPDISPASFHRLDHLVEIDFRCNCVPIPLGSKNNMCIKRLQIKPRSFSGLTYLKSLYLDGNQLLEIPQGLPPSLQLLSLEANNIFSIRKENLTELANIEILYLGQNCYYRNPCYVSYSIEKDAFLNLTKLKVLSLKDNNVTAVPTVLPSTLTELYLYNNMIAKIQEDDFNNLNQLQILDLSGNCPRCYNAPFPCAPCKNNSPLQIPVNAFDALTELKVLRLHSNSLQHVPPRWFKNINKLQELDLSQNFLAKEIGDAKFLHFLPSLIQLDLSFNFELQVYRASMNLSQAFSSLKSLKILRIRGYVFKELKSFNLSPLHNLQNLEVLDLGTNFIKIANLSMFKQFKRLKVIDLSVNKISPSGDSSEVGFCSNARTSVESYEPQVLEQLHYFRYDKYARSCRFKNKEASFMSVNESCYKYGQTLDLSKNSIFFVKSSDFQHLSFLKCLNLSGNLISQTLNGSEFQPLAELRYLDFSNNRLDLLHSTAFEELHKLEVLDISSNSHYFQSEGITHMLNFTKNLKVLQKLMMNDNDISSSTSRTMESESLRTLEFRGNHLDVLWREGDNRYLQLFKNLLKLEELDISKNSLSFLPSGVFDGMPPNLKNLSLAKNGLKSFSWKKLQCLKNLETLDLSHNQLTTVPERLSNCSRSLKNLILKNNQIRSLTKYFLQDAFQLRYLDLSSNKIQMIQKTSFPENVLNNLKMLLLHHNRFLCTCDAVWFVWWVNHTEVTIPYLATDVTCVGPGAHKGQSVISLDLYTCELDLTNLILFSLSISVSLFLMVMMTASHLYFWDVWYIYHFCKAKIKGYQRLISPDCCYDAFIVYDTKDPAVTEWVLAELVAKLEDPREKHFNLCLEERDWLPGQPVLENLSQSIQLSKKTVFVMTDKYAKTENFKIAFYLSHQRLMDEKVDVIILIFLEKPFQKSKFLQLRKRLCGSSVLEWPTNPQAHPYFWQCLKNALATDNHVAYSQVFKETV
# Excerpt: HEK293-Blue-hTLR-7 cells assay:
# A stable HEK293-Blue-hTLR-7 cell line was purchased from InvivoGen (Cat. #: hkb-htlr7, San Diego, Calif., USA). These cells were originally designed for studying the stimulation of human TLR7 by monitoring the activation of NF-κB. A SEAP (secreted embryonic alkaline phosphatase) reporter gene was placed under the control of the IFN-β minimal promoter fused to five NF-κB and AP-1-binding sites. The SEAP was induced by activating NF-κB and AP-1 via stimulating HEK-Blue hTLR7 cells with TLR7 ligands. Therefore the reporter expression was declined by TLR7 antagonist under the stimulation of a ligand, such as R848 (Resiquimod), for incubation of 20 hrs. The cell culture supernatant SEAP reporter activity was determined using QUANTI-Blue™ kit (Cat. #: rep-qb1, Invivogen, San Diego, Ca, USA) at a wavelength of 640 nm, a detection medium that turns purple or blue in the presence of alkaline phosphatase.
# HEK293-Blue-hTLR7 cells were incubated at a density of 250,000-450,000 cells/mL in a volume of 170 μL in a 96-well plate in Dulbecco's Modified Eagle's medium (DMEM) containing 4.5 g/L glucose, 50 U/mL penicillin, […], […], 2 mM L-glutamine, 10% (v/v) heat-inactivated fetal bovine serum with addition of 20 μL test compound in a serial dilution in the presence of final DMSO at 1% and 10 μL of 20 uM R848 in above DMEM, perform incubation under 37° C. in a CO2 incubator for 20 hrs. Then 20 μL of the supernatant from each well was incubated with 180 μL Quanti-blue substrate solution at 37° C. for 2 hrs and the absorbance was read at 620˜655 nm using a spectrophotometer. The signaling pathway that TLR7 activation leads to downstream NF-κB activation has been widely accepted, and therefore similar reporter assay was modified for evaluating TLR7 antagonist.
# [2] = Human microsome stability assay; format: in vitro ADME; conditions: 1 μM test compound, 0.5 mg/mL liver microsomal protein, 37° C., up to 30 minutes; 6.2 = detection limit
# Procedure: Human Microsome Stability Assay
# The human microsomal stability assay is used for early assessment of metabolic stability of a test compound in human liver microsomes.
# Human liver microsomes (Cat. NO.: 452117, Corning, USA; Cat. NO.:H2610, Xenotech, USA) were preincubated with test compound for 10 minutes at 37° C. in 100 mM potassium phosphate buffer, pH 7.4. The reactions were initiated by adding NADPH regenerating system. The final incubation mixtures contained 1 μM test compound, 0.5 mg/mL liver microsomal protein, 1 mM MgCl2, 1 mM NADP, 1 unit/mL isocitric dehydrogenase and 6 mM isocitric acid in 100 mM potassium phosphate buffer, pH 7.4. After incubation times of 0, 3, 6, 9, 15 and 30 minutes at 37° C., 300 μL of cold acetonitrile (including internal standard) was added to 100 μL incubation mixture to terminate the reaction. Following precipitation and centrifugation, the amount of compound remaining in the samples were determined by LC-MS/MS. Controls of no NADPH regenerating system at zero and 30 minutes were also prepared and analyzed.
SMILES,IC50 [1],Clearance of Human microsome [2]
"C[C@@H]1CN(c2ccc(C#N)c3ncccc23)C[C@H](CN2CC(n3ncc4c3CCNC4)C2)O1 [Example 1, 5-[(2R,6S)-2-methyl-6-[[3-(4,5,6,7-tetrahydropyrazolo[4,3-c]pyridin-1-yl)azetidin-1-yl]methyl]morpholin-4-yl]quinoline-8-carbonitrile]",10 nM,6.2* mL/min/kg
"C[C@@H]1CN(c2ccc(C#N)c3ncccc23)C[C@H](CN2CC(n3cc4c(n3)CCNC4)C2)O1 [Example 2, 5-[(2R,6S)-2-methyl-6-[[3-(4,5,6,7-tetrahydropyrazolo[4,3-c]pyridin-2-yl)azetidin-1-yl]methyl]morpholin-4-yl]quinoline-8-carbonitrile]",25 nM,6.2 mL/min/kg
"C[C@@H]1CN(c2ccc(C#N)c3ncccc23)C[C@H](CN2CC(n3cc4c(n3)CNCC4)C2)O1 [Example 4, 5-[(2R,6S)-2-methyl-6-[[3-(4,5,6,7-tetrahydropyrazolo[3,4-c]pyridin-2-yl)azetidin-1-yl]methyl]morpholin-4-yl]quinoline-8-carbonitrile]",9 nM,6.2 mL/min/kg
"C[C@@H]1CN(c2ccc(C#N)c3ncccc23)C[C@H](CN2CC(n3cc4c(n3)CN(C)CC4)C2)O1 [Example 5, 5-[(2R,6S)-2-methyl-6-[[3-(6-methyl-5,7-dihydro-4H-pyrazolo[3,4-c]pyridin-2-yl)azetidin-1-yl]methyl]morpholin-4-yl]quinoline-8-carbonitrile]",4 nM,6.2 mL/min/kg
"C[C@@H]1CN(c2ccc(C#N)c3ncccc23)C[C@H](CN2CC(n3cc4c(n3)CNC4)C2)O1 [Example 11, 5-[(2S,6R)-2-[[3-(5,6-dihydro-4H-pyrrolo[3,4-c]pyrazol-2-yl)azetidin-1-yl]methyl]-6-methyl-morpholin-4-yl]quinoline-8-carbonitrile]",17 nM,6.2 mL/min/kg
"C[C@@H]1Cc2c(cnn2C2CN(C[C@H]3CN(c4ccc(C#N)c5ncccc45)C[C@@H](C)O3)C2)CN1 [Example 16, 5-[(2R,6S)-2-methyl-6-[[3-[(6R)-6-methyl-4,5,6,7-tetrahydropyrazolo[4,3-c]pyridin-1-yl]azetidin-1-yl]methyl]morpholin-4-yl]quinoline-8-carbonitrile]",4 nM,7.2 mL/min/kg

# Next, values leading:
IC50 [1],Clearance of Human microsome [2],SMILES
4 nM,6.2 mL/min/kg,"C[C@@H]1Cc2nn(C3CN(C[C@H]4CN(c5ccc(C#N)c6ncccc56)C[C@@H](C)O4)C3)cc2CN1 [Example 17, 5-[(2R,6S)-2-methyl-6-[[3-[(6R)-6-methyl-4,5,6,7-tetrahydropyrazolo[4,3-c]pyridin-2-yl]azetidin-1-yl]methyl]morpholin-4-yl]quinoline-8-carbonitrile]"
17 nM,7.0 mL/min/kg,"C[C@@H]1CN(c2ccc(C#N)c3ncccc23)C[C@H](CN2CC(n3ncc4c3C[C@H](C)NC4)C2)O1 [Example 18, 5-[(2R,6S)-2-methyl-6-[[3-[(6S)-6-methyl-4,5,6,7-tetrahydropyrazolo[4,3-c]pyridin-1-yl]azetidin-1-yl]methyl]morpholin-4-yl]quinoline-8-carbonitrile]"
19 nM,6.2 mL/min/kg,"C[C@@H]1CN(c2ccc(C#N)c3ncccc23)C[C@H](CN2CC(n3cc4c(n3)C[C@H](C)NC4)C2)O1 [Example 19, 5-[(2R,6S)-2-methyl-6-[[3-[(6S)-6-methyl-4,5,6,7-tetrahydropyrazolo[4,3-c]pyridin-2-yl]azetidin-1-yl]methyl]morpholin-4-yl]quinoline-8-carbonitrile]"
5 nM,6.2 mL/min/kg,"C[C@@H]1CN(c2ccc(C#N)c3ncccc23)C[C@H](CN2CC(n3ncc4c3CCN[C@@H]4C)C2)O1 [Example 20, 5-[(2R,6S)-2-methyl-6-[[3-[(4R)-4-methyl-4,5,6,7-tetrahydropyrazolo[4,3-c]pyridin-1-yl]azetidin-1-yl]methyl]morpholin-4-yl]quinoline-8-carbonitrile]"
18 nM,6.2 mL/min/kg,"C[C@@H]1CN(c2ccc(C#N)c3ncccc23)C[C@H](CN2CC(n3cc4c(n3)CCN[C@@H]4C)C2)O1 [Example 21, 5-[(2R,6S)-2-methyl-6-[[3-[(4R)-4-methyl-4,5,6,7-tetrahydropyrazolo[4,3-c]pyridin-2-yl]azetidin-1-yl]methyl]morpholin-4-yl]quinoline-8-carbonitrile]"
5 nM,6.2 mL/min/kg,"C[C@@H]1CN(c2ccc(C#N)c3ncccc23)C[C@H](CN2CC(n3ncc4c3CCN[C@H]4C)C2)O1 [Example 22, 5-[(2R,6S)-2-methyl-6-[[3-[(4S)-4-methyl-4,5,6,7-tetrahydropyrazolo[4,3-c]pyridin-1-yl]azetidin-1-yl]methyl]morpholin-4-yl]quinoline-8-carbonitrile]"
13 nM,6.2 mL/min/kg,"C[C@@H]1CN(c2ccc(C#N)c3ncccc23)C[C@H](CN2CC(n3cc4c(n3)CCN[C@H]4C)C2)O1 [Example 23, 5-[(2R,6S)-2-methyl-6-[[3-[(4S)-4-methyl-4,5,6,7-tetrahydropyrazolo[4,3-c]pyridin-2-yl]azetidin-1-yl]methyl]morpholin-4-yl]quinoline-8-carbonitrile]"
5 nM,7.7 mL/min/kg,"C[C@@H]1CN(c2ccc(C#N)c3ncccc23)C[C@H](CN2CCC(n3ncc4c3CCNC4)CC2)O1 [Example 35, 5-[(2R,6S)-2-methyl-6-[[4-(4,5,6,7-tetrahydropyrazolo[4,3-c]pyridin-1-yl)-1-piperidyl]methyl]morpholin-4-yl]quinoline-8-carbonitrile]"
18 nM,6.2 mL/min/kg,"C[C@@H]1CN(c2ccc(C#N)c3ncccc23)C[C@H](CN2CCC(n3cc4c(n3)CCNC4)CC2)O1 [Example 36, 5-[(2R,6S)-2-methyl-6-[[4-(4,5,6,7-tetrahydropyrazolo[4,3-c]pyridin-2-yl)-1-piperidyl]methyl]morpholin-4-yl]quinoline-8-carbonitrile]"
